Values after ≈ are worked out from the molar mass of the structure shown. Read-outs that look alike come from different tables or passages of the source. Numbered stars: 1 amine (or outer) side, 2 acyl side, 3 side chain; on linkers, the order of the positions; unused ones are H or OH. Bridge positions count the residues as written; N and C are the ends. Square brackets hold non-standard residues; d marks the D form. Peptide text beside a SMILES is read from it. * marks the point of attachment. hTyr(3S-OH,4S-OH,3'-OSO3H) = N[C@H](C(=O)O)[C@H](O)[C@@H](O)c1ccc(O)c(OS(=O)(=O)O)c1; Orn(4R-OH,5R-OH) = O=C([C@H](C[C@@H](O)[C@@H](O)N[*:3])N[*:1])[*:2]; Pro(3S-OH,4S-Me) = C[C@H]1CN[C@H](C(=O)O)[C@H]1O; X1 = CCCCCOc1ccc(-c2cc(-c3ccc(C(=O)*)cc3)no2)cc1; Gln(3R-OH) = NC(=O)C[C@@H](O)[C@H](N)C(=O)O; Hyp = O=C(O)[C@@H]1C[C@@H](O)CN1
What was measured:
[1] = tested on: Mucorales Mucor species; assay: In vitro susceptibility (MIC), macrobroth dilution; assay type: cell-based; details: Mucor sp. 13-127, drug alone; for MIC50: lowest concentration causing 50% decrease in growth vs untreated control; for MIC100: lowest concentration without growth
[2] = tested on: A549 human lung cancer cells; assay type: cell-based; details: 48 h, 10 %
Protocol: Cytotoxicity assay: Cytotoxicity assays in A549 human lung cancer cells were performed using XTT assay as indicated in the manufacturers' instructions. Cells (2×10^5 cells/well) were seeded in 96-well tissue plates and incubated in Dulbecco's Modified Eagle Medium (DMEM) culture medium. After 24 hours of incubation, the cells were treated with BRI (40 and 80 μM/well), CAS (50, 100 and 200 μg/well) or in different CAS+BRI combinations. After 48 hours incubation, the cell viability was assessed by using the XTT kit (Roche Applied Science) according to the manufacturer's instructions. Formazan formation was quantified spectrophotometrically at 450 nm (reference wavelength 620 nm) using a microplate reader. The experiment was made in three replicates. Viability was calculated using the background-corrected absorbance as follows: Cell viability (%)=absorbance value of experiment well/absorbance value of control well×100.

[3] = tested on: A. fumigatus; assay: Alamar blue metabolic activity assay; assay type: cell-based, Aspergillus fumigatus; details: for interaction with BRI in inhibition of metabolic activity (Alamar blue): increasing concentrations + BRI 20 μM, 48 hours
[4] = tested on: A. fumigatus; assay: Protein kinase inhibitor (PKI) library screen with or without BRI; details: for growth, PKI (20 μM): PKI 20 μM alone; for growth, PKI (20 μM) + BRI (20 μM): PKI 20 μM together with BRI 20 μM
Protocol: A protein kinase inhibitors (PKI) library was also screened in combination with BRI. In total, 58 PKI were analyzed. Briefly, 100 μL of liquid MM containing 2.5×10^3 conidia/mL of the A. fumigatus wild-type strain plus 10% alamar blue was inoculated with increasing concentration of PKI (5-80 μM) in the presence (or not) of BRI (20μM) and incubated 48 hours at 37° C. without shaking. […] Plates were incubated for 48 hours at 37° C. without shaking. All experiments containing alamar blue were, after 48 hours incubation, read spectrophotometically by fluorescence and analyzed as previously described. Experiments were repeated at least three times.
To assess the mechanism of action of BRI, a collection of 58 protein kinase inhibitors (PKI, at a concentration of 20 μM; Table 4) was screened for A. fumigatus growth and corresponding metabolic activity alone or together with 20 μM BRI (Table 4).

[5] = tested on: Cryptococcus neoformans; assay: In vitro susceptibility (MIC), macrobroth dilution; assay type: cell-based; details: C. neoformans CN9759, drug alone
[6] = tested on: Candida albicans; assay: In vitro susceptibility (MIC), macrobroth dilution; assay type: cell-based; details: C. albicans 5, drug alone
[7] = tested on: Aspergillus fumigatus; assay: In vitro susceptibility (MIC), macrobroth dilution; assay type: cell-based; details: drug alone; for MIC50: lowest concentration causing 50% decrease in growth vs untreated control; for MIC100: lowest concentration without growth
[8] = tested on: A. fumigatus; assay: MIC/MEC, CLSI M38-A2; assay type: cell-based, Aspergillus fumigatus; details: Aspergillus fumigatus, read-out: MIC VOR
[9] = tested on: A. fumigatus conidia infecting A549 pulmonary cells; assay: Killing assay in infected A549 cells; assay type: cell-based, Aspergillus fumigatus; details: monotherapy
Protocol: Killing assay: The type II pneumocyte cell line A549 was cultured using DMEM (ThermoFischer Scientific, Paisley. […] After 24 hours of incubation in 5% CO2 the culture media was removed, and 2 ml of sterile water was added to the wells. A P1000 tip was then used to scrape away the cell monolayer and the cell suspension was collected. This suspension was then diluted 1:1000 and 100 μl was plated on Sabouraud Dextrose Agar Media before the plates were incubated a 37° C. overnight. The numbers of CFUs were determined after 24 hours of growth. A volume of 50 μl of the inoculum adjusted to 103/ml was also plated on SAB agar to correct CFU counts. The CFU percentage for each sample was calculated and the results were plotted using Graphpad Prism (GraphPad Software, Inc., La Jolla, CA, USA).

[10] = tested on: A. fumigatus biofilms; assay: Biofilm assay (XTT); details: Aspergillus fumigatus, read-out: inhibition of biofilm formation
Protocol: Biofilm assay: To test the susceptibility of pre-formed A. fumigatus biofilms to
VOR, CAS and to the combination of CAS+BRI and VOR+BRI, a suspension containing 10^6 conidia per mL of the wild-type strain (Δku80 pyrG^+) was prepared in liquid MM and 100 μL of it was inoculated in each well of a 96-well plate. After 24 hours of incubation at 37° C., 50 μL of fresh MM containing CAS, VOR or the combination of VOR and CAS with BRI was added to the biofilm to reach the final concentration as indicated and incubated for a further 12 hours at 37° C. Wells containing untreated conidia were used as a positive control. After, the metabolic activity of the cells was evaluated by adding 50 μL of an aqueous XTT solution (1 mg/mL of XTT and 125 μM of menadione) to each well. The plate was incubated for additional 1 hour at 37° C., centrifuged (2000 rpm, 5 minutes) and 100 μL of the supernatant was transferred to a flat-bottomed 96-well plate. The absorbance was measured at 450 nm on a plate reader (Synergy HTX Multi-Mode Reader- BioTek Instruments). The XTT assay's were performed in six replicates.

[11] = tested on: A. fumigatus clinical isolates; assay: Growth inhibition of clinical isolates by CAS, VOR, BRI and combinations; details: strain CYP15-15-109, VOR
[12] = lowest concentration causing 50% decrease in growth vs untreated control
[13] = lowest concentration without growth

Compound: C[C@@H]1[C@H](O)[C@@H](C)/C=C/C=C/C=C/C=C/C=C/C=C/C=C/[C@H](O[C@@H]2O[C@H](C)[C@@H](O)[C@H](N)[C@@H]2O)C[C@@H]2O[C@](O)(C[C@@H](O)C[C@@H](O)[C@H](O)CC[C@@H](O)C[C@@H](O)CC(=O)O[C@H]1C)C[C@H](O)[C@H]2C(=O)O [Amphotericin B (AMPB)]
- MIC50 [1]: 0.25 µg/mL (≈ 0.271 µM)
- MIC100 [1]: 0.5 µg/mL (≈ 0.541 µM)

Compound: C[S+](C)[O-] [DMSO, dimethyl sulfoxide]
- reduction of cell viability [2]: 80%

Compound: CCn1c(=O)c(-c2ccc(Cl)cc2Cl)cc2cnc(Nc3ccc(N4CCNCC4)c(F)c3)nc21 [FRAX486]
- effect on BRI activity (metabolic activity, Alamar blue) [3]: potentiating the BRI activity
- growth, PKI (20 μM) [4]: ++ (++: growth ≥80% compared to no treatment)
- growth, PKI (20 μM) + BRI (20 μM) [4]: + (+: growth ≤60% compared to no treatment)

Compound: OC(Cn1cncn1)(Cn1cncn1)c1ccc(F)cc1F [Fluconazole (FLU)]
- MIC50 [5, 12]: 1 µg/mL (≈ 3.27 µM)
- MIC100 [5, 13]: 1 µg/mL (≈ 3.27 µM)

Compound: CCCCCOc1ccc(-c2cc(-c3ccc(C(=O)N[C@H]4C[C@@H](O)[C@@H](O)NC(=O)[C@@H]5[C@@H](O)[C@@H](C)CN5C(=O)[C@H]([C@H](O)CC(N)=O)NC(=O)[C@H]([C@H](O)[C@@H](O)c5ccc(O)c(OS(=O)(=O)O)c5)NC(=O)[C@@H]5C[C@@H](O)CN5C(=O)[C@H]([C@@H](C)O)NC4=O)cc3)no2)cc1 [Micafungin (MICA)] (X1-[Orn(4R-OH,5R-OH)]T[Hyp][hTyr(3S-OH,4S-OH,3'-OSO3H)][Gln(3R-OH)][Pro(3S-OH,4S-Me)]; lactam 1-C)
- MIC50 [1]: >16 µg/mL
- MIC100 [1]: >16 µg/mL
- MIC50 [6, 12]: ≤0.03 µg/mL
- MIC100 [6, 13]: 0.25 µg/mL (≈ 0.197 µM)
- MIC50 ([7]; A. fumigatus 21-23): ≤0.06 µg/mL
- MIC100 ([7]; A. fumigatus 21-23): >16 µg/mL

Compound: Nc1ncnc2c1c(-c1cnc3[nH]ccc3c1)nn2C1CCCC1 [PP121]
- effect on BRI activity (metabolic activity, Alamar blue) [3]: potentiating the BRI activity
- growth, PKI (20 μM) [4]: ++ (++: growth ≥80% compared to no treatment)
- growth, PKI (20 μM) + BRI (20 μM) [4]: + (+: growth ≤60% compared to no treatment)

Compound: CC[C@@H]([C@H](C)O)n1ncn(-c2ccc(N3CCN(c4ccc(OC[C@@H]5CO[C@@](Cn6cncn6)(c6ccc(F)cc6F)C5)cc4)CC3)cc2)c1=O [Posaconazole (POSA)]
- MIC50 [1]: 1 µg/mL (≈ 1.43 µM)
- MIC100 [1]: >16 µg/mL

Compound: C[C@@H](c1ncncc1F)[C@](O)(Cn1cncn1)c1ccc(F)cc1F [VOR, voriconazole]
- MIC ([8]; A. fumigatus VOR^R clinical isolate named in c0 of the row): 8 µg/mL (≈ 22.9 µM)
- MIC ([8]; A. fumigatus WT (CEA17)): 2 µg/mL (≈ 5.73 µM)
- A. fumigatus killing [9]: ~60%
- inhibition at 2 µg/mL [10]: ~10%
- inhibition at 4 µg/mL [10]: ~50%
- growth inhibition [11]: totally inhibited

Compound: C[C@@H](c1ncncc1F)[C@](O)(Cn1cncn1)c1ccc(F)cc1F [Voriconazole (VOR)]
- MIC50 ([7]; A. fumigatus 10AF): 0.125 µg/mL (≈ 0.358 µM)
- MIC100 ([7]; A. fumigatus 10AF): 1 µg/mL (≈ 2.86 µM)

Compound: COc1ccc2c(c[n+](C)c3c4cc5c(cc4ccc23)OCO5)c1OC [chelerenthrine]
- interaction with BRI in inhibition of metabolic activity (Alamar blue) [3]: synergize

Compound: calphostin C
- interaction with BRI in inhibition of metabolic activity (Alamar blue) [3]: synergize

Reference: patent publication US20240139188A1, “Arylamide Compounds For Treatment And Prevention Of Fungal Infections” (priority 2022, published 2024)
